Measured values as given in the supplement of paper PMC10307832.

What was measured:
Assay in all cases: relative viability (nuclei count vs DMSO), 5 days (fraction); higher = more cells survive
NCI-H1915 = system: NCI-H1915
How it was run: (§1)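 Medians of duplicate plates are given as relative viability. That measure is the nuclei count in treated wells divided by the count in vehicle wells. Counts were taken on 4× images of lung cancer cell lines in 1536-well plates, 5 days after pin-tool dosing the day after seeding with one drug alone or a fixed anchor-drug dose plus five library-drug doses (not always all listed) in √10 steps.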

NCI-H441 = system: NCI-H441
How it was run: as §1

NCI-H2170 = system: NCI-H2170
How it was run: as §1

LCLC-97TM1 = system: LCLC-97TM1
How it was run: as §1

NCI-H2405 = system: NCI-H2405
How it was run: as §1

A-427 = system: A-427
How it was run: as §1

LXF-289 = system: LXF-289
How it was run: as §1

NCI-H838 = system: NCI-H838
How it was run: as §1

HARA = system: HARA
How it was run: as §1

NCI-H520 = system: NCI-H520
How it was run: as §1

HCC-366 = system: HCC-366
How it was run: as §1

NCI-H1993 = system: NCI-H1993
How it was run: as §1

PC-14 = system: PC-14
How it was run: as §1

NCI-H2228 = system: NCI-H2228
How it was run: as §1

NCI-H1975 = system: NCI-H1975
How it was run: as §1

HCC-44 = system: HCC-44
How it was run: as §1

RERF-LC-KJ = system: RERF-LC-KJ
How it was run: as §1

NCI-H2347 = system: NCI-H2347
How it was run: as §1

H3255 = system: H3255
How it was run: as §1

NCI-H1395 = system: NCI-H1395
How it was run: as §1

NCI-H1755 = system: NCI-H1755
How it was run: as §1

SK-MES-1 = system: SK-MES-1
How it was run: as §1

NCI-H3122 = system: NCI-H3122
How it was run: as §1

Structure (SMILES): C=C1C(=O)O[C@@H](CCCCCCCC)[C@@H]1C(=O)O [C-75] + CC(=O)Nc1cccc(-n2c(=O)n(C3CC3)c(=O)c3c(Nc4ccc(I)cc4F)n(C)c(=O)c(C)c32)c1 [Trametinib] (partner 0.02 µM)
- relative viability (NCI-H1915; first compound 0.08 µM): 0.323
- relative viability (NCI-H1915; first compound 0.253 µM): 0.288
- relative viability (NCI-H1915; first compound 0.8 µM): 0.32
- relative viability (NCI-H1915; first compound 2.53 µM): 0.273
- relative viability (NCI-H1915; first compound 8 µM): 0.359
- relative viability (NCI-H441; first compound 0.08 µM): 0.569
- relative viability (NCI-H441; first compound 0.253 µM): 0.533
- relative viability (NCI-H441; first compound 0.8 µM): 0.406
- relative viability (NCI-H441; first compound 8 µM): 0.548
- relative viability (NCI-H2170; first compound 0.08 µM): 0.962
- relative viability (NCI-H2170; first compound 0.253 µM): 0.924
- relative viability (NCI-H2170; first compound 0.8 µM): 0.941
- relative viability (NCI-H2170; first compound 2.53 µM): 0.849
- relative viability (NCI-H2170; first compound 8 µM): 0.85
- relative viability (LCLC-97TM1; first compound 0.08 µM): 0.211
- relative viability (LCLC-97TM1; first compound 0.253 µM): 0.162
- relative viability (LCLC-97TM1; first compound 0.8 µM): 0.193
- relative viability (LCLC-97TM1; first compound 2.53 µM): 0.175
- relative viability (LCLC-97TM1; first compound 8 µM): 0.177
- relative viability (NCI-H2405; first compound 0.08 µM): 0.635
- relative viability (NCI-H2405; first compound 0.253 µM): 0.47
- relative viability (NCI-H2405; first compound 0.8 µM): 0.691
- relative viability (NCI-H2405; first compound 2.53 µM): 0.575
- relative viability (NCI-H2405; first compound 8 µM): 0.784
- relative viability (A-427; first compound 0.08 µM): 0.78
- relative viability (A-427; first compound 0.253 µM): 0.84
- relative viability (A-427; first compound 0.8 µM): 0.655
- relative viability (A-427; first compound 2.53 µM): 0.665
- relative viability (A-427; first compound 8 µM): 0.701
- relative viability (LXF-289; first compound 0.08 µM): 0.646
- relative viability (LXF-289; first compound 0.253 µM): 0.683
- relative viability (LXF-289; first compound 0.8 µM): 0.657
- relative viability (LXF-289; first compound 2.53 µM): 0.664
- relative viability (LXF-289; first compound 8 µM): 0.672
- relative viability (NCI-H838; first compound 0.08 µM): 0.524
- relative viability (NCI-H838; first compound 0.253 µM): 0.292
- relative viability (NCI-H838; first compound 0.8 µM): 0.456
- relative viability (NCI-H838; first compound 2.53 µM): 0.422
- relative viability (NCI-H838; first compound 8 µM): 0.388
- relative viability (HARA; first compound 0.08 µM): 0.662
- relative viability (HARA; first compound 0.253 µM): 0.931
- relative viability (HARA; first compound 0.8 µM): 0.766
- relative viability (HARA; first compound 2.53 µM): 0.587
- relative viability (HARA; first compound 8 µM): 0.646
- relative viability (NCI-H520; first compound 0.08 µM): 0.689
- relative viability (NCI-H520; first compound 0.253 µM): 0.816
- relative viability (NCI-H520; first compound 0.8 µM): 0.593
- relative viability (NCI-H520; first compound 2.53 µM): 0.48
- relative viability (NCI-H520; first compound 8 µM): 0.533
- relative viability (HCC-366; first compound 0.08 µM): 0.356
- relative viability (HCC-366; first compound 0.253 µM): 0.426
- relative viability (HCC-366; first compound 0.8 µM): 0.327
- relative viability (HCC-366; first compound 2.53 µM): 0.285
- relative viability (HCC-366; first compound 8 µM): 0.326
- relative viability (NCI-H1993; first compound 0.08 µM): 0.573
- relative viability (NCI-H1993; first compound 0.253 µM): 0.541
- relative viability (NCI-H1993; first compound 0.8 µM): 0.507
- relative viability (NCI-H1993; first compound 2.53 µM): 0.576
- relative viability (NCI-H1993; first compound 8 µM): 0.557
- relative viability (PC-14; first compound 0.08 µM): 0.902
- relative viability (PC-14; first compound 0.253 µM): 0.811
- relative viability (PC-14; first compound 0.8 µM): 0.724
- relative viability (PC-14; first compound 2.53 µM): 0.78
- relative viability (PC-14; first compound 8 µM): 0.731
- relative viability (NCI-H2228; first compound 0.08 µM): 0.666
- relative viability (NCI-H2228; first compound 0.253 µM): 0.673
- relative viability (NCI-H2228; first compound 0.8 µM): 0.444
- relative viability (NCI-H2228; first compound 2.53 µM): 0.372
- relative viability (NCI-H2228; first compound 8 µM): 0.519
- relative viability (NCI-H1975; first compound 0.08 µM): 0.452
- relative viability (NCI-H1975; first compound 0.253 µM): 0.309
- relative viability (NCI-H1975; first compound 0.8 µM): 0.305
- relative viability (NCI-H1975; first compound 2.53 µM): 0.319
- relative viability (NCI-H1975; first compound 8 µM): 0.41
- relative viability (HCC-44; first compound 0.08 µM): 1.03
- relative viability (HCC-44; first compound 0.253 µM): 1.14
- relative viability (HCC-44; first compound 0.8 µM): 0.964
- relative viability (HCC-44; first compound 2.53 µM): 0.991
- relative viability (HCC-44; first compound 8 µM): 1.09
- relative viability (RERF-LC-KJ; first compound 0.08 µM): 0.874
- relative viability (RERF-LC-KJ; first compound 0.253 µM): 0.945
- relative viability (RERF-LC-KJ; first compound 0.8 µM): 0.925
- relative viability (RERF-LC-KJ; first compound 2.53 µM): 0.918
- relative viability (RERF-LC-KJ; first compound 8 µM): 0.866
- relative viability (NCI-H2347; first compound 0.08 µM): 0.296
- relative viability (NCI-H2347; first compound 0.253 µM): 0.193
- relative viability (NCI-H2347; first compound 0.8 µM): 0.317
- relative viability (NCI-H2347; first compound 2.53 µM): 0.26
- relative viability (NCI-H2347; first compound 8 µM): 0.365
- relative viability (H3255; first compound 0.08 µM): 0.66
- relative viability (H3255; first compound 0.253 µM): 0.613
- relative viability (H3255; first compound 0.8 µM): 0.647
- relative viability (H3255; first compound 2.53 µM): 0.543
- relative viability (H3255; first compound 8 µM): 0.666
- relative viability (NCI-H1395; first compound 0.08 µM): 0.973
- relative viability (NCI-H1395; first compound 0.253 µM): 1.05
- relative viability (NCI-H1395; first compound 2.53 µM): 1.03
- relative viability (NCI-H1395; first compound 8 µM): 0.933
- relative viability (NCI-H1755; first compound 0.08 µM): 0.763
- relative viability (NCI-H1755; first compound 0.253 µM): 0.748
- relative viability (NCI-H1755; first compound 0.8 µM): 0.76
- relative viability (NCI-H1755; first compound 2.53 µM): 0.677
- relative viability (NCI-H1755; first compound 8 µM): 0.702
- relative viability (SK-MES-1; first compound 0.08 µM): 0.538
- relative viability (SK-MES-1; first compound 0.253 µM): 0.542
- relative viability (SK-MES-1; first compound 0.8 µM): 0.48
- relative viability (SK-MES-1; first compound 2.53 µM): 0.478
- relative viability (SK-MES-1; first compound 8 µM): 0.438
- relative viability (NCI-H3122; first compound 0.08 µM): 0.261
- relative viability (NCI-H3122; first compound 0.253 µM): 0.243
- relative viability (NCI-H3122; first compound 0.8 µM): 0.218
- relative viability (NCI-H3122; first compound 2.53 µM): 0.143
- relative viability (NCI-H3122; first compound 8 µM): 0.259
